From patent publication US20240209022A1, “NOVEL PEPTIDE HAVING ANTI-INFLAMMATORY AND TISSUE REGENERATIVE ACTIONS” (KOREA RESEARCH INSTITUTE OF BIOSCIENCE AND BIOTECHNOLOGY, priority 2020, published 2024)

Legend:
[1] = test system: MIA-induced degenerative arthritis model; test: MIA-induced degenerative arthritis model; type: in vivo, C57BL/6J mice; conditions: vs PBS buffer group; for diameter of the knee joint: day 1 after MIA injection, i.p.
Method: As a degenerative arthritis model, 9-week-old specific pathogen free (SPF) male C57BL/6J mice were anesthetized, the area around the right knee joint was cleanly shaved, and 10 μL of MIA solution (monosodium iodoacetate 0.5 mg in 10 μL 0.9% sterile saline) was injected into the knee joint cavity to induce arthritis. From 3 days before MIA (monosodium iodoacetate) solution injection, Amuc_1409 or PEP001, PEP002, PEP003, PEP004, PEP005, PEP006, PEP007, PEP008, PEP009, PEP010, PEP011, PEP012, or PEP013 was dissolved in PBS buffer at a concentration of 6.7 μM and then injected into the mouse peritoneal cavity at 150 μL per animal once a day at the same time. On day 3 (0 days) after administration of Amuc_1409 or PEP001 to PEP013, an additional intraperitoneal injection was given 1 hour before MIA injection, the drug was intraperitoneally injected once a day at the same time after MIA injection, and the experiment was terminated on the 30th day after MIA injection. In the control group, the same volume of PBS buffer was injected intraperitoneally. After MIA injection, the diameter of the knee joint was measured using a caliper for 7 days at 2-day intervals (0, 1, 3, 5, and 7 days) to evaluate swelling caused by inflammatory changes of the joint. […] At this time, the weight bearing on the limb was lower as arthritis was more severe. The weight-bearing weight (g) of each of both paws was measured, and in this experiment, the value was expressed as the ratio (%) of the right hind limb with arthritis to the total hind limb. Weight bearing ratio (%)=weight-bearing weight of right hind limb with arthritis (g)/weight-bearing weight of both hind limbs (g)×100 After termination of the experiment, the test animals were sacrificed, then the knee joint tissue of the mouse was fixed with 10% neutral buffered formalin, and the bone was decalcified with a 0.5 M EDTA solution. Next, the joint tissue was embedded in paraffin to prepare a 5 μm joint section, and Safranin O staining was performed to histopathologically analyze the degree of damage to the cartilage tissue. At this time, the degree of damage to the cartilage tissue was evaluated by examining the degree of safranin O staining of the sections and scored according to OARSI (Osteoarthritis Research Society International grade) guidelines. The scoring criteria according to the OARSI guidelines are as follows (Table 1). [table]

[2] = test system: animal model of metabolic disease accompanied by obesity/diabetes and chronic inflammation; test: High-fat diet obesity/diabetic metabolic disease model; type: in vivo, C57BL/6J mice; conditions: for blood glucose in insulin resistance experiment (ITT): after insulin administration, time as stated in the value; for blood glucose in insulin resistance experiment (ITT) / AUC value of the insulin resistance experiment / body weight / LDL-C level in blood / TC (total cholesterol) level in blood / abdominal fat: vs PBS buffer group; for body weight: oral, 3 weeks on high-fat diet; for fasting blood glucose: after fasting for 16 hours at the end of the test; for maintenance of the decreased blood glucose in insulin resistance experiment: until 120 minutes after insulin
Method: An animal model of metabolic disease accompanied by obesity/diabetes and chronic inflammation was induced by feeding a high-fat diet.
The experiment in the groups administered with Amuc_1409 or PEP001 to PEP005 was performed using 8-week-old SPF male C57BL/6J mice, and the metabolic disease accompanied by obesity/diabetes and chronic inflammation was induced by ad libitum feeding of a high-fat diet for 45 weeks or 8 weeks. Specifically, mice fed a high-fat diet for 45 weeks were fed a high-fat diet for an additional 3 weeks, and Amuc_1409 was dissolved in PBS buffer at a concentration of 2.4 μM and then orally administered to the mice by 150 μL per animal at the same time once a day until the end of the experiment, or mice fed a high-fat diet for 8 weeks were fed a high-fat diet for an additional 3 weeks, and PEP001, PEP002, PEP003, PEP004, or PEP005 was dissolved in PBS buffer at a concentration of 2.4 μM and then orally administered to the mice by 150 μL per animal at the same time once a day until the end of the experiment. To the control group, PBS buffer was orally administered in the same manner.
For the experiment in the groups administered with PEP006 to PEP013, 8-week-old male C57BL/6J mice were used, and the metabolic disease accompanied by obesity/diabetes and chronic inflammation was induced by ad libitum feeding of a high-fat diet for 32, 50, or 53 weeks. Mice fed a high-fat diet for 32 weeks were fed a high-fat diet for an additional 3 weeks, and a novel tetrapeptide PEP006 was dissolved in PBS buffer at a concentration of 0.15 μg/150 μL (PEP006) and then orally administered to the mice by 150 μL per animal at the same time until the end of the test, mice fed a high-fat diet for 50 weeks were fed a high-fat diet for an additional 3 weeks, and a novel tetrapeptide PEP007, PEP008, PEP009, or PEP010 was dissolved in PBS buffer at a concentration of 0.2 μg/150 μL (PEP007 to PEP013) and then orally administered to the mice by 150 μL per animal at the same time until the end of the test, and mice fed a high-fat diet for 53 weeks were fed a high-fat diet for an additional 3 weeks, and a novel […] PEP011, PEP012, or PEP013 was dissolved in PBS buffer at a concentration of 0.2 μg/150 μL (PEP007 to PEP013) and then orally administered to the mice by 150 μL per animal at the same time until the end of the test. To the control group, PBS buffer was orally administered in the same manner.
For all animals, general symptoms were observed immediately before administration at the start of administration, and the body weight was measured until the end of the test after group separation.
Insulin (Humalog, 1 unit/kg) was intraperitoneally injected into mice fasted for 4 hours at 2 weeks after the start of test substance administration (2 weeks in groups administered with Amuc_1409 and PEP001 to PEP005 and 3 weeks in groups administered with PEP006 to PEP013), and then blood glucose at 30 minutes, 60 minutes, 90 minutes, and 120 minutes was measured from a small amount of blood obtained through a wound at the tip of the tail using ACCU-CHECK (Roche), thereby performing an insulin tolerance test (ITT).
At the end of the test, fasting blood glucose was measured from a small amount of blood obtained through a wound at the tip of the tail of the mouse fasted for 16 hours using ACCU-CHECK, and blood was collected from the orbital venous plexus using a heparin-treated capillary tube. The collected blood was immediately centrifuged at 10,000 rpm (4° C.) for 10 minutes to separate plasma, and then subjected to analysis of total cholesterol (TC) and low-density lipoprotein cholesterol (LDL-C), which are blood abnormal lipid indicators, using an automated blood biochemical analyzer.

[3] = 2 weeks and 4 weeks after MIA injection
[4] = days 3, 5, and 7 after MIA injection

## AIS [PEP013]
[1]; [3]
  weight bearing ratio: tended to be improved
[2]
  blood glucose in insulin resistance experiment (ITT): decreased close to a significant level from 30 minutes to 120 minutes after insulin administration
  AUC value of the insulin resistance experiment: decreased close to a significant level

## AVSSIKGAY (PEP001)
[1]; [3]
  weight bearing ratio: significantly increased
[1]
  diameter of the knee joint: tended to decrease
[1]; [4]
  thickness of the knee joint: significantly decreased
[2]
  blood glucose in insulin resistance experiment (ITT): decreased at 30 minutes after insulin administration
  body weight: decreased from the initial body weight
  AUC value of the insulin resistance experiment: decreased
  LDL-C level in blood: significantly decreased
  TC (total cholesterol) level in blood: decreased
  abdominal fat: decreased

## GAY [PEP005]
[1]; [3]
  weight bearing ratio: significantly increased
[1]
  diameter of the knee joint: tended to decrease
[1]; [4]
  thickness of the knee joint: significantly decreased
[2]
  fasting blood glucose: decreased
  blood glucose in insulin resistance experiment (ITT): decreased at 30 minutes after insulin administration
  body weight: significantly decreased
  AUC value of the insulin resistance experiment: decreased
  LDL-C level in blood: significantly decreased
  TC (total cholesterol) level in blood: tended to decrease
  abdominal fat: decreased

## AQS [PEP011]
[1]; [3]
  weight bearing ratio: significantly improved
[2]
  blood glucose in insulin resistance experiment (ITT): decreased close to a significant level from 30 minutes to 120 minutes after insulin administration
  AUC value of the insulin resistance experiment: decreased close to a significant level

## VGAY (PEP010)
[1]; 2 weeks after MIA injection
  weight bearing ratio: significantly increased
[1]; 4 weeks after MIA injection
  weight bearing ratio: significantly increased
[1]
  diameter of the knee joint: tended to decrease
[1]; day 3 after MIA injection
  thickness of the knee joint: significantly decreased
[1]; day 5 after MIA injection
  thickness of the knee joint: significantly decreased
[1]; day 7 after MIA injection
  thickness of the knee joint: significantly decreased
[2]
  blood glucose in insulin resistance experiment (ITT): decreased to a significant level from 30 minutes to 120 minutes after insulin administration
  AUC value of the insulin resistance experiment: decreased close to a significant level

## KGAY (PEP003)
[1]; [3]
  weight bearing ratio: significantly increased
[1]
  diameter of the knee joint: significantly decreased
[1]; [4]
  thickness of the knee joint: significantly decreased
[2]
  fasting blood glucose: decreased
  blood glucose in insulin resistance experiment (ITT): decreased at 30 minutes after insulin administration
  body weight: significantly decreased
  maintenance of the decreased blood glucose in insulin resistance experiment: significantly maintained until 120 minutes
  AUC value of the insulin resistance experiment: decreased
  LDL-C level in blood: significantly decreased
  TC (total cholesterol) level in blood: significantly decreased
  abdominal fat: decreased

## AVSSI (PEP002)
[1]; [3]
  weight bearing ratio: significantly increased
[1]
  diameter of the knee joint: significantly decreased
[1]; [4]
  thickness of the knee joint: significantly decreased
[2]
  fasting blood glucose: decreased
  blood glucose in insulin resistance experiment (ITT): decreased at 30 minutes after insulin administration
  body weight: decreased from the initial body weight
  AUC value of the insulin resistance experiment: decreased
  LDL-C level in blood: significantly decreased
  TC (total cholesterol) level in blood: decreased
  abdominal fat: decreased

## AVS (AVSSIKGAY) [PEP004]
[1]; [3]
  weight bearing ratio: significantly increased
[1]
  diameter of the knee joint: significantly decreased
[1]; [4]
  thickness of the knee joint: significantly decreased
[2]
  fasting blood glucose: decreased
  blood glucose in insulin resistance experiment (ITT): decreased at 30 minutes after insulin administration
  body weight: significantly decreased
  maintenance of the decreased blood glucose in insulin resistance experiment: significantly maintained until 120 minutes
  AUC value of the insulin resistance experiment: decreased
  LDL-C level in blood: significantly decreased
  TC (total cholesterol) level in blood: tended to decrease
  abdominal fat: decreased

## IGAY (PEP008)
[1]; 2 weeks after MIA injection
  weight bearing ratio: significantly increased
[1]; 4 weeks after MIA injection
  weight bearing ratio: significantly increased
[1]
  diameter of the knee joint: significantly decreased
[1]; day 3 after MIA injection
  thickness of the knee joint: significantly decreased
[1]; day 5 after MIA injection
  thickness of the knee joint: significantly decreased
[1]; day 7 after MIA injection
  thickness of the knee joint: significantly decreased
[2]
  blood glucose in insulin resistance experiment (ITT): decreased to a significant level from 30 minutes to 120 minutes after insulin administration
  AUC value of the insulin resistance experiment: significantly decreased
